Laboratory results taken from PMC6820371, “Terbium-161 for PSMA-targeted radionuclide therapy of prostate cancer” (European Journal of Nuclear Medicine and Molecular Imaging, 2019).
Entries after “also recorded” stand apart in the source; their conditions may differ. Like-named read-outs stand apart in the source and are kept apart here. Marks after values point to notes of the source that are not given here.

Columns and labels:
[1] = test system: PC-3 PIP tumor-bearing mice; settings: for Median Survival: control 19 days
Description: Athymic nude BALB/c mice were obtained from Charles River Laboratories (Sulzfeld, Germany) at the age of 5–6 weeks. […] Therapy studies were performed with mice inoculated with PC-3 PIP cells (4 × 10^6 cells in HBSS with Ca^2+/Mg^2+) on the right shoulder (Supplementary material).
Three groups of mice (n = 6) were injected with only saline, ^161Tb-PSMA-617 (5.0 MBq; 1 nmol/mouse), or ^161Tb-PSMA-617 (10 MBq; 1 nmol/mouse) at Day 0 of the therapy, 6 days after PC-3 PIP tumor cell inoculation (Table 1). The mice were monitored by measuring body weights and the tumor sizes every other day over 12 weeks. Mice were euthanized when pre-defined endpoint criteria were reached, or when the study was terminated at Day 84 (Supplementary material). The relative body weight (RBW) was defined as [BWx/ BW0], where BWx is the body weight in gram at a given day x, and BW0 the body weight in grams at Day 0. The tumor dimension was determined by measuring the longest tumor axis (L) and its perpendicular axis (W) with a digital caliper. The tumor volume (V) was calculated according to the eq. [V = 0.5 * (L * W^2)]. The relative tumor volume (RTV) was defined as [TVx/TV0], where TVx is the tumor volume in mm^3 at a given day x, and TV0 the tumor volume in mm^3 at Day 0.
The efficacy of the radionuclide therapy was assessed by the tumor growth delay (TGDx), which was calculated as the time required for the tumor volume to increase x-fold over the initial volume at Day 0. The tumor growth delay index [TGDIx = TGDx(T)/TGDx(C)] was calculated as the TGDx ratio of treated mice (T) over control mice (C) for a 2-fold (x = 2, TGD2) and 5-fold (x = 5, TGD5) increase of the initial tumor volume. Statistical analysis was performed by a one-way ANOVA with Tukey’s multiple comparison post-test using GraphPad Prism software (version 7). A value of p < 0.05 was considered statistically significant. The median survival was calculated by Kaplan–Meier curves using GraphPad Prism software (version 7).
Methods: The therapy was started at Day 0 by injecting mice with the radioligands, 6 days after PC-3 PIP tumor cell inoculation (4×10^6 cells in HBSS with Ca^2+/Mg^2+) on the right shoulder.
Endpoint criteria: Mice were euthanized when a predefined endpoint criterion was reached or when the study was finalized at Day 84. Endpoint criteria were defined as (i) body weight loss of >15%, (ii) a tumor volume of >800 mm^3 (iii) a combination of body weight loss of >10% and a tumor volume of >700 mm^3 or (iv) signs of unease and pain or a combination thereof.

PC-3 PIP tumor cells = experiment: Cell survival assay (clonogenic assay); format: cell-based, human; settings: 0.05–5.0 MBq/mL, p < 0.05
[2] = test system: mice inoculated with PC-3 PIP cells; experiment: Additional therapy study (injection 2 days after tumor cell inoculation); format: in vivo; settings: for Median Survival: control 26 days
Description: The day of the treatment, two days after tumor cell inoculation, was defined as Day 0 of the study (Table S7).
Endpoint criteria: The mice were monitored until they reached an endpoint (definition of endpoints, see Chapter 13) or over the whole period of 38 days when the study was terminated.
Data analysis of the therapy study: The tumor growth delay indices (TGDI2 and TGDI5) were calculated as reported in the Methods of the main manuscript. The median survival was determined using GraphPad Prism software (version 7).

[3] = test system: PSMA-negative PC-3 flu tumor cells; experiment: Tumor cell uptake and internalization; format: cell-based; settings: 2–4 h incubation
[4] = test system: PC-3 PIP/flu tumor-bearing mice; settings: ~25 MBq
Description: In a separate study, SPECT/CT experiments were performed 12–14 days after tumor cell inoculation using a dedicated small-animal SPECT/CT camera (NanoSPECT/CT^TM, Mediso Medical Imaging Systems, Budapest, Hungary) as previously reported (Supplementary material) [34]. ^161Tb-PSMA-617 (~25 MBq/nmol) was diluted in saline for injection. Scans were acquired at 1 h, 4 h, and 24 h after injection of the radioligands (~25 MBq, 1 nmol, 100 μL). During the in-vivo scans, mice were anesthetized using a mixture of Isoflurane and oxygen.
Methods: Mice were inoculated with PC-3 PIP/flu tumor cells, as described for biodistribution studies, and injected with ^161Tb-PSMA-617 (~25 MBq, 1 nmol per mouse) about 12-14 days later. Under these conditions, the SPECT scans lasted for ~40 min. […] During the in-vivo scans, mice were anesthetized using a mixture of Isoflurane and oxygen.
SPECT/CT experiments were performed using a dedicated small-animal SPECT/CT camera (NanoSPECT/CT^TM, Mediso Medical Imaging Systems, Budapest, Hungary) as previously reported [4, 10]. The images were acquired using Nucline software (version 1.02, Mediso Ltd., Budapest, Hungary). The real-time CT reconstruction used a cone-beam-filtered backprojection. […] The lower scale of radioactivity was cut by 1% to make tumors and kidneys best visible.

[5] = n-octanol/PBS distribution coefficient (logD), shake-flask method; format: physicochemical; settings: PBS pH 7.4
Description: The radiolabeling of PSMA-617 (Advanced Biochemical Compounds, ABX GmbH, Radeberg, Germany) with ^161Tb was performed under standard labeling conditions (Supplementary material). […] The n-octanol/PBS distribution coefficient (logD) was determined for ^161Tb-PSMA-617 (Supplementary material). All of these experiments were performed as previously reported for ^177Lu-PSMA-617 [27].
It was diluted in PBS pH 7.4 (∼500 kBq, 25 µL, 0.01 nmol) and added to polypropylene tubes containing 1475 µL PBS and 1500 µL n-octanol followed by vigorous vortexing for 1 min. Phase separation was obtained by centrifugation at 1200 rcf for 6 min. The distribution coefficients were calculated as the logarithm of the ratio of counts per minute (cpm) measured in the n-octanol phase relative to the cpm measured in the PBS pH 7.4 phase using a γ-counter (Perkin Elmer, Wallac Wizard 1480). At least three experiments were performed in quintuplicate.

## O=C([O-])CN1CCN(CC(=O)[O-])CCN(CC(=O)NCC2CCC(C(=O)NC(Cc3ccc4ccccc4c3)C(=O)NCCCCC(NC(=O)NC(CCC(=O)O)C(=O)O)C(=O)O)CC2)CCN(CC(=O)[O-])CC1.[161Tb+3] (stereo not shown) [^161Tb-PSMA-617]
[1]; 5.0 MBq/mouse
  First mouse euthanized: 30 days
  Last mouse euthanized: 66 days
  TGDI2: 4.2 ± 1.2
  TGDI3: 2.5 ± 0.6
  Median Survival: 36 days
[1]; 10 MBq/mouse
  First mouse euthanized: 42 days
  Median Survival: 65 days
[1]; 10 MBq/mouse, n = 6
  Mice still alive at the end of the study at Day 84: two
[1]; 10 MBq/mouse, n = 6, over 12 weeks
  Mice in which PC-3 PIP tumors disappeared entirely: two of the six; also recorded: two out of six
[1]; 10 MBq/mouse, study end at Day 84, 2 mice had not reached an endpoint
  Last mouse euthanized: 84^1) Day
PC-3 PIP tumor cells
  Reduction of tumor-cell survival compared to ^177Lu-PSMA-617: significantly more effective
[2]; 2.5 MBq
  First mouse euthanized: 26 days
  TGDI2: 1.0 ± 0.4
  TGDI5: 1.2 ± 0.3
  Median Survival: 31 days
[2]; 2.5 MBq, study end Day 38
  Last mouse euthanized: study end
[2]; 5.0 MBq
  First mouse euthanized: 30 days
  TGDI2: 1.6 ± 0.4
  Median Survival: 34 days
[2]; 5.0 MBq, study end Day 38
  Last mouse euthanized: study end
[2]; 10 MBq
  Survival: survived until the end of the study at Day 38
[2]; 10 MBq, from Day 25 and Day 35 on
  Cases in which tumors started to grow: 2 of 8
[2]; 10 MBq, study end Day 38
  First mouse euthanized: study end
  Last mouse euthanized: study end
[3]
  Uptake in PC-3 flu tumor cells: < 0.5%
[4]; 1 h, 4 h and 24 h p.i.
  Uptake in the PSMA-negative PC-3 flu tumor (SPECT/CT): negligible uptake
[4]; after 4 h
  Renal excretion of activity (SPECT/CT): almost entirely excreted
[5]
  n-octanol/PBS distribution coefficient (logD value): −3.9 ± 0.1
